TGI and GI50 data for 24 compounds are collected here from PubChem BioAssay (NCI).

Holding throughout (experiment): NCI-60 cell line screen, 48 h
Test [1] has as its system ACHN renal.
Test [2] deals with HL-60(TB) leukemia.
In test [3] the test system is HOP-62 NSCLC.
Test [4] has as its system K-562 leukemia.
The test system of test [5] is MALME-3M melanoma.
For test [6], the system named is MDA-MB-231 breast.
For test [7], the system named is PC-3 prostate.
Test [8] relates to RXF 393 renal.
The subject of test [9] is SK-OV-3 ovarian.
Test [10] deals with SW-620 colon.
Test [11] relates to UACC-62 melanoma.

Several values for one entry are separate records, joined by “and”; a condition that tells them apart may be missing. Equal entries are not always repeated.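 Protocol summary: plate cells (96-well), add compound at 5 concentrations, incubate 48 h, interpolate endpoints linearly. The concentration for 50% growth inhibition is given as GI50. The concentration for full growth arrest is given as TGI.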 A value given as a limit tells only on which side of the number the result lay.

For `Cc1cc(N(CCC#N)CCC#N)ccc1/C=C1\SC(=S)NC1=O`, the TGI in [1], in test [2], in test [3], in test [4], in test [5] and in test [6] was above 100 µM in each case. In addition, the TGI in test [7] is above 100 µM; in test [8], 99.8 µM; in [9] it was above 100 µM; in test [10], above 100 µM; in [11], above 100 µM.
Take `CC12CCC(C(=Nc3cc(C(F)(F)F)cc(C(F)(F)F)c3)C1=O)C2(C)C` (stereo not given): the TGI in test [1] was above 100 µM; in [2], 23.8 µM; in test [3], above 100 µM; in test [4], above 100 µM; in test [5], 69.4 µM; in test [6], above 100 µM. Also, the TGI is above 100 µM in [7]; 37.3 µM in [8]; above 100 µM in [9]; above 100 µM in test [10]; above 100 µM in [11].
As to `CCN(CC)CCOC(=O)Cc1cccc2c(=O)cc(-c3ccccc3)oc12`, the TGI is 62.5 µM in test [1]; 44.6 µM in test [2]; 62.5 µM and > 144 µM in [3]; 62.5 µM and 165 µM in test [5]; 57.2 µM in test [6]; 62.5 µM in test [7]. The TGI in [8] is 58.7 µM and > 144 µM; in [9], 62.5 µM and > 108 µM; in [10], 62.5 µM and > 251 µM; in test [11], 62.5 µM and > 154 µM. For the same compound, the GI50 in test [2] is 3.86 µM; in test [3], 25.9 µM; in test [4], 406 µM; in test [5] it was 64.7 µM; in test [8] it was 52.6 µM; in test [10], 123 µM. In addition, in [11], the GI50 is 39.5 µM.
On to `CCOC(=O)C(=CN1CCNC1=S)C(=O)OCC`, for which the TGI in test [1], in test [2], in test [3], in test [4], in [5] and in test [6] was above 100 µM each time. For the same compound, the TGI in [7], in [8], in test [9], in test [10] and in test [11] was above 100 µM each time.
For the compound `CN(C)CC1CCC/C(=C\c2ccc(OC(=O)/C=C/c3ccc(Cl)c(Cl)c3)cc2)C1=O` (stereo not given), the TGI in test [1] is 3.46 µM; in test [2] it was 3.45 µM; in [3], 14.8 µM; in test [4] it was above 100 µM; in test [5] it was 25.4 µM; in [6], 11.9 µM. Further, the TGI in [7] is 13.2 µM; in [8], 4.41 µM; in [9] it was above 100 µM; in test [10], 7.86 µM; in [11], 33.3 µM.
For `COC(=O)NC(Cc1ccccc1)NC(C)=O` (stereo not given), the TGI in test [1], in test [2], in [3], in [4], in test [5] and in [6] was above 100 µM throughout. For the same compound, the TGI in test [7], in [8], in test [9], in test [10] and in test [11] was above 100 µM throughout.
Consider `Cc1ccc2c(C(=O)c3c(C)n(CCN4CCOCC4)c4ccccc34)cccc2c1`, for which the TGI in [1] is 88.4 µM; in test [2], 10.4 µM; in test [3] it was 99.6 µM; in test [4] it was above 100 µM; in [5], 37.6 µM; in [6] it was 47.9 µM. For the same compound, the TGI was 43.2 µM in [7]; 54.6 µM in test [8]; 61 µM in [9]; 16.5 µM in test [10]; 45.2 µM in [11].
For the compound `O=C1CS(=O)(=O)C(c2cccc(Oc3ccccc3)c2)N1c1ccccc1` (stereo not given), the TGI in [1] is 64.8 µM; in test [2], above 100 µM; in test [3] it was above 100 µM; in test [4] it was 60.1 µM; in test [5] it was 42.6 µM; in [6], 62.6 µM. The TGI in test [7] was 66.8 µM; in [8] it was 38.7 µM; in [9], above 100 µM; in test [10], above 100 µM; in test [11], 27 µM.
With `CC12ON(P(=O)(c3ccccc3)c3ccccc3)C(C)(c3ccccc31)c1ccccc12`, the TGI in test [1], in test [2], in [3], in test [4], in test [5] and in test [6] was above 100 µM in each case. The TGI in test [7], in test [8], in test [9], in [10] and in test [11] was above 100 µM throughout.
In the case of `COc1c2ccsc2c(OC)c2ccsc12`, the TGI in test [1], in test [2], in test [3], in test [4], in test [5] and in test [6] was above 100 µM throughout. The TGI in test [7], in test [8], in test [9], in test [10] and in [11] was above 100 µM in each case.
`N=c1oc2ccccc2cc1-c1nc2ccccc2c(=O)[nH]1`: the TGI is above 100 µM in test [1]; above 100 µM in [2]; 69.9 µM in [3]; above 100 µM in [4]; above 100 µM in test [5]; above 100 µM in [6]. Further, the TGI in test [7], in [8], in test [9], in [10] and in test [11] was above 100 µM throughout.
As for `O=C(C(Cl)=C(N1CCCCC1)N1CCCCC1)C(Cl)Cl`, the TGI in test [1], in test [2], in [3], in test [4], in [5] and in [6] was above 100 µM throughout. For the same compound, the TGI in test [7], in test [8], in test [9], in [10] and in [11] was above 100 µM throughout.
Regarding `COc1ccc2c(c1)c1nn(CCN3CCCCC3)c3ccc4c(=O)n(CCN(C)C)c(=O)n2c4c13`, the TGI in [1] was 0.243 µM; in [2] it was 0.511 µM; in test [3], 0.0384 µM; in test [4], 0.6 µM; in test [5] it was 0.351 µM; in test [6] it was 0.126 µM. Besides, the TGI in test [7] is 0.603 µM; in [8], below 0.0374 µM; in test [9], 2.91 µM; in test [10], 0.0751 µM; in [11], 0.197 µM.
Consider `CCOC(=O)C(=O)CC(=O)C1=C(c2ccccc2OC)CC(c2cccs2)=CC1=O`, for which the TGI in test [1], in [2], in test [3], in test [4], in test [5] and in test [6] was above 100 µM in each case. In addition, the TGI in test [7], in test [8], in test [9], in test [10] and in [11] was above 100 µM each time.
For the compound `Cc1cc(O)cc(O)c1C(=O)O[C@]1(C)C(=O)C=C2C=C(/C=C/C(=O)O)OC=C2C1=O`, the TGI was above 100 µM in test [1]; 75.1 µM in test [2]; above 100 µM in [3]; above 100 µM in test [4]; above 100 µM in test [5]; above 100 µM in [6]. Moreover, the TGI in [7], in test [8], in test [9], in [10] and in test [11] was above 100 µM in each case.
`CCCc1nnc2sc(COc3cc(Cl)c(OCc4nn5c(CCC)nnc5s4)cc3Cl)nn12`: the TGI is above 100 µM in [1]; 80.5 µM in test [2]; above 100 µM in test [3]; above 100 µM in test [4]; above 100 µM in test [5]; above 100 µM in test [6]. For the same compound, the TGI in test [7] is above 100 µM; in [8], above 100 µM; in test [9], 82.5 µM; in [10], above 100 µM; in test [11], above 100 µM.
As for `Cc1cc2oc(C)c(S(=O)(=O)NC(=O)Nc3ccc(Cl)cc3)c(=O)c2c(=O)o1`, the TGI in test [1], in [2], in test [3], in test [4], in test [5] and in test [6] was above 100 µM each time. Also, the TGI in test [7], in test [8], in [9], in test [10] and in test [11] was above 100 µM throughout.
As to `N#CC[N+]1(Cc2ccccn2)CCCC1`, the TGI in [1], in test [2], in test [3], in test [4], in [5] and in test [6] was above 100 µM each time. Moreover, the TGI in test [7], in test [8], in [9], in test [10] and in test [11] was above 100 µM in each case.
With `CCOC(=O)CCC(NC(=O)Cc1ccc(Oc2nc3ccccc3nc2-c2ccccc2)cc1)C(=O)OCC` (stereo not given), the TGI in [1], in test [2], in [3], in test [4], in test [5] and in test [6] was above 100 µM throughout. Also, the TGI in [7], in test [8], in test [9], in [10] and in [11] was above 100 µM throughout.
For `O=C(N/N=C(/COc1ccccc1Cl)N=Cc1ccncc1)c1ccncc1`, the TGI in test [1], in [2], in [3], in test [4], in test [5] and in test [6] was above 100 µM in each case. Moreover, the TGI in test [7], in test [8], in test [9], in test [10] and in [11] was above 100 µM in each case.
For the compound `Cc1c(O)c(OC2OC(CO)C(O)C(O)C2O)cc2c1C=C[C@@H]1[C@@]2(C)C(=O)C[C@]2(C)[C@@H]([C@@](C)(O)C(=O)CCC(C)(C)O)[C@H](O)C[C@@]12C` (stereo not given in full), the TGI in test [1] was 36.2 µM; in test [2] it was above 100 µM; in test [3], above 100 µM; in test [4], above 100 µM; in test [5], 50 µM; in [6], 47.7 µM. The TGI worked out at 44.5 µM in [7]; 38.1 µM in test [8]; 42.1 µM in [9]; 79.9 µM in test [10]; 33.5 µM in test [11].
Regarding `Cc1ccc(S(=O)(=O)n2ccc(-c3ccc4ccn(S(=O)(=O)c5ccc(C)cc5)c4c3)c2)cc1`, the TGI in [1], in test [2], in test [3], in [4], in [5] and in test [6] was above 100 µM throughout. The TGI in test [7] was above 100 µM; in test [8] it was 39.3 µM; in test [9], above 100 µM; in [10], above 100 µM; in test [11] it was above 100 µM.
As to `CCOC(=O)C(NC(=O)CC)(Nc1ccc(F)c(Cl)c1)C(F)(F)F` (stereo not given), the TGI in [1], in [2], in [3], in test [4], in test [5] and in test [6] was above 100 µM each time. Moreover, the TGI in test [7], in test [8], in test [9], in [10] and in test [11] was above 100 µM each time.
Regarding `CCCC(=O)NC(Nc1ccc(F)cc1)(C(F)(F)F)C(F)(F)F`, the TGI in test [1], in [2], in test [3], in [4], in test [5] and in test [6] was above 100 µM throughout. For the same compound, the TGI in [7], in test [8], in test [9], in test [10] and in test [11] was above 100 µM in each case.
